From patent EP3305781A1, “CHEMICAL SUBSTANCES WHICH INHIBIT THE ENZYMATIC ACTIVITY OF HUMAN KALLIKREIN-RELATED PEPTIDASE 6 (KLK6)” (Deutsches Krebsforschungszentrum, priority 2016, dated 2018) come the findings set out here.

Each structure is given as a SMILES string. Read-outs that look alike come from different tables or passages of the source. Where only a bound is given, the exact number is not on record here.

Data set [1] is described as follows: NMR-based stability assay in cell culture medium. In kind it is physicochemical. The following applies: ~8 mM in DMSO-d6 diluted 1:3 with DMEM + 10% FCS; NMR at 37°C for 16 hours; compared with Example Compound 1; Figures 1-3.
The target in data set [2] is KLK6 (Homo sapiens, UniProt Q92876). In words: Biochemical inhibition assay, fluorogenic substrate FSR-AMC.
Experimental: (§1) In a 384 well plate, 5 µL of eleven concentrations of inhibitor in 8% DMSO (serial dilution 2:1) and a blank were incubated with an equal amount of enzyme (KLK6, Thrombin, Trypsin or Factor Xa) diluted in 50 mM Tris pH 7.5, 150 mM NaCl, 1 mM EDTA, 0.05% Tween20 assay buffer for 30 minutes. […] Inhibition of the enzyme as a function of the inhibitor concentration was used to generate dose response curves, which allowed estimating IC50 values, according to the following equation in GraphPad Prism: y = ymin + (ymax−ymin)/(1+10^(((LogIC50−x)*HillSlope))) [formula]
(§2) Assay final concentrations: • KLK6: 5 nM • Trypsin: 0.88 ng/mL • Thrombin: 9.8·10^-5 NIH unit/mL • Factor Xa: 4 nM • FSR-AMC: 20 µM
The target in data set [3] is Thrombin (Homo sapiens, UniProt P00734). The description is as above.
Experimental: as §1, §2
The target of data set [4] is Trypsin (Homo sapiens, UniProt P07477). The data set is described as above.
Experimental: as §1, §2
The target in data set [5] is Factor Xa (Homo sapiens, UniProt P00742). Described as above.
Sequence of Factor Xa (P00742 235-488 limits assumed): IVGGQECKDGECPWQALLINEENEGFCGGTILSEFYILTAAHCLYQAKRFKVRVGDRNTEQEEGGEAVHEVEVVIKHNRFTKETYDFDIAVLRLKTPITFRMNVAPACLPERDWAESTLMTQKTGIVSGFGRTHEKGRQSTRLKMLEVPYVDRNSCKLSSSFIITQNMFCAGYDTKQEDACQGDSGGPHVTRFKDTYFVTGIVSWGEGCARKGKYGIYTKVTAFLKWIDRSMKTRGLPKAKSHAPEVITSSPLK
Sequence of Factor Xa (P00742 41-179 partner limits assumed): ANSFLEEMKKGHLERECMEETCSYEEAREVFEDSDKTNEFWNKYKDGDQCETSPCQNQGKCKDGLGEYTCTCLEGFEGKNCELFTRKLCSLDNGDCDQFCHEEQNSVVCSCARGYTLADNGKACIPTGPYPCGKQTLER
Experimental: as §1, §2
[6] abbreviates: read-out: KLK6 IC50, KLK6 5 nM (produced in insect cells), 30 min incubation with inhibitor, FSR-AMC 20 µM, Tris pH 7.5.
Where [7] appears, read: read-out: Thrombin IC50, Thrombin 9.8·10^-5 NIH unit/mL, 30 min incubation with inhibitor, FSR-AMC 20 µM, Tris pH 7.5.
The mark [8] stands for this setting: read-out: Trypsin IC50, Trypsin 0.88 ng/mL, 30 min incubation with inhibitor, FSR-AMC 20 µM, Tris pH 7.5.
[9] abbreviates: read-out: Factor Xa IC50, Factor Xa 4 nM, 30 min incubation with inhibitor, FSR-AMC 20 µM, Tris pH 7.5.

As to `Cc1nn(-c2ccccc2)c(C)c1NC(=O)COC(=O)Cc1c(C)[nH]c2ccccc12` [Example Compound 38, 2-((3,5-dimethyl-1-phenyl-1H-pyrazol-4-yl)amino)-2-oxoethyl 2-(2-methyl-1H-indol-3-yl)acetate], the “stability in cell culture medium (ester hydrolysis)” value in data set [1] is “totally enhanced”.
Same read-out and setting: for `Cc1nn(-c2ccccc2)c(C)c1NC(=O)COC(=O)C(C)c1c(C)[nH]c2ccccc12` (centres unmarked) [Example Compound 81, 2-((3,5-dimethyl-1-phenyl-1H-pyrazol-4-yl)amino)-2-oxoethyl 2-(2-methyl-1H-indol-3-yl)propanoate] the value was “further stabilizing properties”.
For orientation: IC50 means the concentration at which inhibition is half-maximal. As for `Cc1nn(C)c(C)c1NC(=O)COC(=O)Cn1c(C)cc2ccccc21` [compound 2, 2-oxo-2-((1,3,5-trimethyl-1H-pyrazol-4-yl)amino)ethyl 2-(2-methyl-1H-indol-1-yl)acetate], the IC50 in data set [2] was 1.25 µM; in data set [3], above 200 µM; in data set [4], 71.5 µM; in data set [5], above 200 µM.
In the case of `Cc1nn(-c2ccc(NCCCCO)cc2)c(C)c1NC(=O)COC(=O)Cn1c(C)cc2ccccc21` [compound 19], the IC50 was 0.264 µM in data set [2] (setting [6]), above 200 µM in data set [3] (setting [7]), 21.3 µM in data set [4] (setting [8]) and above 200 µM in data set [5] (setting [9]).
Consider `Cc1[nH]c2ccccc2c1CC(=O)OCC(=O)NC1CCCC1` [compound 71], for which the IC50 in data set [2] (setting [6]) was 78.7 µM; in data set [3] (setting [7]), above 200 µM; in data set [4] (setting [8]), above 200 µM; in data set [5] (setting [9]), above 200 µM.
Take `Cc1nn(-c2ccccc2)c(C)c1NC(=O)COC(=O)Cn1ccc2c(F)cccc21` [compound 25]: the IC50 was 30.6 µM in data set [2] (setting [6]), above 50 µM in data set [3] (setting [7]), above 50 µM in data set [4] (setting [8]) and above 50 µM in data set [5] (setting [9]).
In the case of `Cc1[nH]c2ccccc2c1CC(=O)OCC(=O)Nc1ccccc1Cl` [compound 73], the 50% inhibitory concentration (IC50) in data set [2] (setting [6]) is 1.46 µM; in data set [3] (setting [7]), above 200 µM; in data set [4] (setting [8]), 114 µM; in data set [5] (setting [9]) it was 34.7 µM.
For the molecule `Cc1nn(-c2ccccc2N)c(C)c1NC(=O)COC(=O)Cn1c(C)cc2ccccc21` [compound 23], the IC50 was 0.375 µM in data set [2] (setting [6]), above 200 µM in data set [3] (setting [7]), above 200 µM in data set [4] (setting [8]) and above 200 µM in data set [5] (setting [9]).
`Cc1cc2ccccc2n1CC(=O)OCC(=O)Nc1ccc(N2CCOCC2)cc1` [compound 35]: the IC50 in data set [2] (setting [6]) was 1.41 µM; in data set [3] (setting [7]) it was above 50 µM; in data set [4] (setting [8]) it was above 50 µM; in data set [5] (setting [9]), above 50 µM.
In the case of `Cc1[nH]c2ccccc2c1CC(=O)OCC(=O)Nc1cccc(C(N)=O)c1` [compound 84], the IC50 in data set [2] (setting [6]) was 3.27 µM; in data set [3] (setting [7]) it was 90.6 µM; in data set [4] (setting [8]), 82.1 µM; in data set [5] (setting [9]), 67.5 µM.
As for `Cc1nn(-c2ccccc2)c(C)c1NC(=O)COC(=O)Cn1cc(C)c2ccccc21` [compound 14, 2-((3,5-dimethyl-1-phenyl-1H-pyrazol-4-yl)amino)-2-oxoethyl 2-(3-methyl-1H-indol-1-yl)acetate], the 50% inhibitory concentration (IC50) in data set [2] was 16.2 µM; in data set [3] it was above 200 µM; in data set [4], above 200 µM; in data set [5], above 200 µM.
Turning to `COc1ccccc1NC(=O)COC(=O)Cc1c(C)[nH]c2ccccc12` [compound 77], the IC50 in data set [2] (setting [6]) is 1.86 µM; in data set [3] (setting [7]), above 200 µM; in data set [4] (setting [8]), 28.7 µM; in data set [5] (setting [9]) it was 21.1 µM.
On the same counts, the results for `Cc1nn(-c2ccccc2)c(C)c1NC(=O)COC(=O)Cc1ccccc1OCc1ccccc1` [compound 69] are 57.4 µM, above 200 µM, above 200 µM and above 200 µM.
On to `COc1ccc(Cn2nc(C)c(NC(=O)COC(=O)Cn3c(C)cc4ccccc43)c2C)cc1` [compound 7, 2-((1-(4-methoxybenzyl)-3,5-dimethyl-1H-pyrazol-4-yl)amino)-2-oxoethyl 2-(2-methyl-1H-indol-1-yl)acetate], for which the IC50 in data set [2] was 0.598 µM; in data set [3], above 200 µM; in data set [4], above 200 µM; in data set [5], above 200 µM.
